Among the data in ChEMBL document CHEMBL1152070, “-cyano-substituted analogoues of decarboxylated S-adenosylmethionine as enzyme activated, irreversible inhibitors of S-adenosylmethionine decarboxylase” (Bioorg Med Chem Lett, 1993) are K inact and Ki values, retold here.

In test [1] the target is T1, S-adenosylmethionine decarboxylase proenzyme (Homo sapiens) (UniProt P17707).
T1 sequence (whole entry): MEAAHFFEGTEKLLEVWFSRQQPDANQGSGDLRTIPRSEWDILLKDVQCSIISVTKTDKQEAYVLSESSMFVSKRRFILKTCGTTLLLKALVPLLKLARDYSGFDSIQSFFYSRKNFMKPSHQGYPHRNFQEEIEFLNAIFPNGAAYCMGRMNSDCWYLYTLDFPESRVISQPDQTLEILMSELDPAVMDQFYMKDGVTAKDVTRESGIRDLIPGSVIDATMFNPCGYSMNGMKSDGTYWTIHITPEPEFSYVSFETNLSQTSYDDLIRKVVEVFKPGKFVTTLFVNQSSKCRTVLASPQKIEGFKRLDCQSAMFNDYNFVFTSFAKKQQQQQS
Description: Compound was evaluated for Enzyme kinetic inactivation constant: Kinact for S-Adenosyl-methionine decarboxylase (AdoMet-DC) enzyme.

Test [2] addresses T2, S-adenosylmethionine decarboxylase proenzyme (Homo sapiens, UniProt P17707).
T2 sequence (P17707 whole entry): T1 sequence (whole entry)
The experiment in a line: Compound was evaluated to inactivate the human AdoMet-DC.

Turning to `C[S+](CCC(N)C#N)C[C@H]1O[C@@H](n2cnc3c(N)ncnc32)[C@H](O)[C@@H]1O` (stereo not given in full), the values for the K inact in test [1] and in test [1] (Escherichia coli) were 0.29 min⁻¹ and 0.06 min⁻¹, respectively. The Ki in test [2] was 247 µM.

On to `C[S+](CCCC(N)C#N)C[C@H]1O[C@@H](n2cnc3c(N)ncnc32)[C@H](O)[C@@H]1O` (stereo not given in full), for which the K inact in test [1] was determined as 0.03 min⁻¹. The compound also came in with a Ki in test [2] of 7.2 µM.
